# In patent US20220241312A1, “COMPOUNDS FOR TREATING CANCER” (Tems Pharmaceuticals, Inc., priority 2019, published 2022):
# Structures can show the parent of a compound that is named as a salt.
# Tests used:
# [1] = test system: gastric cancer cell line NCI-N-87-luc; test: Cytotoxicity assay (CellTiter Glo), NCI-N-87-luc; assay type: cell-based; details: 72 h or 120 h incubation, Compound No. 1 tested as TEA salt
# Procedure: (§1) Cytotoxicity of the test compounds were determined for multiple cell lines including gastric cancer cell lines NCI-N-87-luc and MKN45; liver cancer cell lines HepG2, Hep3B, and Huh7; pancreatic cell lines MIAPACA-2 and PANC-1; and colon cancer cell lines HT-29 and HCT-116.
# (§2) Test compounds were prepared as 10 mM stock solutions. 5-FU, the control compound, was also prepared as a 10 mM stock solution. 45 μL of stock solution was transferred to a 384 polypropylene plate. The test and control compounds were then serially diluted 3 fold 10 times by transferring 15 μL compound solution into 30 μL DMSO by using TECAN (EVO200) liquid handler. […]
# (§3) For each cell line assayed, cells were grown in a flask and then were harvested from the flask into cell culture medium. The cell number was counted and the cells were diluted with cell culture medium to the 2.5*10^4 cells/mL. […]
# (§4) The cell culture plates were covered with a lid, placed at room temperature for 30 min without shaking, and transferred into a 37° C. […] On the desired day, cytotoxicity of the compounds was detected using CellTiter Glo. […] 40 μL of CellTiter-Glo reagent was added into each well to be detected (at 1:1 to culture medium). The plates were placed at room temperature for 30 min and then luminescence was detected using an EnSpire plate reader. […]
# [2] = test system: gastric cancer cell line MKN45; test: Cytotoxicity assay (CellTiter Glo), MKN45; assay type: cell-based; details: Homo sapiens, MKN-45, 72 h or 120 h incubation, Compound No. 1 tested as TEA salt
# Procedure: as §1, §2, §3, §4
# [3] = test system: liver cancer cell line HepG2; test: Cytotoxicity assay (CellTiter Glo), HepG2; assay type: cell-based; details: Homo sapiens, 72 h or 120 h incubation, Compound No. 1 tested as TEA salt
# Procedure: as §1, §2, §3, §4
# [4] = test system: liver cancer cell line Hep3B; test: Cytotoxicity assay (CellTiter Glo), Hep3B; assay type: cell-based; details: Homo sapiens, 72 h or 120 h incubation, Compound No. 1 tested as TEA salt
# Procedure: as §1, §2, §3, §4
# [5] = test system: liver cancer cell line Huh7; test: Cytotoxicity assay (CellTiter Glo), Huh7; assay type: cell-based; details: Homo sapiens, Huh-7, 72 h or 120 h incubation, Compound No. 1 tested as TEA salt
# Procedure: as §1, §2, §3, §4
# [6] = test system: pancreatic cell line MIAPACA-2; test: Cytotoxicity assay (CellTiter Glo), MIAPACA-2; assay type: cell-based; details: Homo sapiens, MIA PaCa-2, 72 h or 120 h incubation, Compound No. 1 tested as TEA salt
# Procedure: as §1, §2, §3, §4
# [7] = test system: pancreatic cell line PANC-1; test: Cytotoxicity assay (CellTiter Glo), PANC-1; assay type: cell-based; details: Homo sapiens, 72 h or 120 h incubation, Compound No. 1 tested as TEA salt
# Procedure: as §1, §2, §3, §4
# [8] = test system: colon cancer cell line HT-29; test: Cytotoxicity assay (CellTiter Glo), HT-29; assay type: cell-based; details: Homo sapiens, 72 h or 120 h incubation, Compound No. 1 tested as TEA salt
# Procedure: as §1, §2, §3, §4
# [9] = test system: colon cancer cell line HCT-116; test: Cytotoxicity assay (CellTiter Glo), HCT-116; assay type: cell-based; details: Homo sapiens, 72 h or 120 h incubation, Compound No. 1 tested as TEA salt
# Procedure: as §1, §2, §3, §4
# [10] = molecular target: T1, dihydropyrimidine dehydrogenase (DPD) (Homo sapiens, UniProt Q12882); details: background statement; cited from earlier work
# T1 sequence (Q12882 4-1025): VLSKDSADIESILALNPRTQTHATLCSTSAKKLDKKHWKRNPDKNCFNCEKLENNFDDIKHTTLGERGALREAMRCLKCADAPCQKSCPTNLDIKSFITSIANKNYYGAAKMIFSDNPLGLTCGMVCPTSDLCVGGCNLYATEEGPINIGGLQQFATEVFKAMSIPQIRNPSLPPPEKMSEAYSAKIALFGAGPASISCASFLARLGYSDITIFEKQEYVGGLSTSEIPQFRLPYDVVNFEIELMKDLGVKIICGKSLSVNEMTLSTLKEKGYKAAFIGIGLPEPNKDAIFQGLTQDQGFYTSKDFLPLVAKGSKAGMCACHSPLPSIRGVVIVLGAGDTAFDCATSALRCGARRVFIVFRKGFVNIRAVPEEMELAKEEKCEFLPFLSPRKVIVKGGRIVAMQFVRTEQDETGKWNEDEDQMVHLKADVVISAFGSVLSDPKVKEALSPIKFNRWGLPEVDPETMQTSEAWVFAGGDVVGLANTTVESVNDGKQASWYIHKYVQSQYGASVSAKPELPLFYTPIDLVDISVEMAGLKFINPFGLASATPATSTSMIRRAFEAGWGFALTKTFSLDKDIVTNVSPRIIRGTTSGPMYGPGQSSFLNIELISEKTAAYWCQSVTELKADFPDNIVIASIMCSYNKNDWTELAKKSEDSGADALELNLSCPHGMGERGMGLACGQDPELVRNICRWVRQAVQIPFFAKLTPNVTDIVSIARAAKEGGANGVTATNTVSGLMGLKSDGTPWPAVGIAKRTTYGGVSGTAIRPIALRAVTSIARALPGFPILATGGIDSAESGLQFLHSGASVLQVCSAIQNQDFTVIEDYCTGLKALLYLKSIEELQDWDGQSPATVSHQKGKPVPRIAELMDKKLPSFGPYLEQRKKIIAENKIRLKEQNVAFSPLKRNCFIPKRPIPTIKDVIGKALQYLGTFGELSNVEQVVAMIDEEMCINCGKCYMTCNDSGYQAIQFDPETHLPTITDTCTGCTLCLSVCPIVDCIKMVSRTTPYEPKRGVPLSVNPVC
SMILES,CC50 [1],CC50 [2],CC50 [3],CC50 [4],CC50 [5],CC50 [6],CC50 [7],CC50 [8],CC50 [9],fraction catabolized by dihydropyrimidine dehydrogenase (DPD) to pharmacodynamically inactive metabolites [10]
"O=c1[nH]cc(F)c(=O)[nH]1 [5-FU, 5-Fluorouracil]",3990 nM,1680 nM,1740 nM,3670 nM,7300 nM,13100 nM,8260 nM,14800 nM,6800 nM,80-85%
"CC(C)OC(=O)OCn1c(=O)c(F)cn([C@H]2C[C@@H]3OP(=O)(O)OC[C@H]3O2)c1=O [Compound No. 1, (4aR,6R,7aS)-6-(5-fluoro-3-(((isopropoxycarbonyl)oxy)methyl)-2,4-dioxo-3,4-dihydropyrimidin-1(2H)-yl)tetrahydro-4H-furo[3,2-d][1,3,2]dioxaphosphinin-2-olate 2-oxide triethylamine salt]",515 nM,21 nM,314 nM,45 nM,13 nM,60 nM,706 nM,15 nM,411 nM,
